Source: article PMC4425855, “Novel pantothenate derivatives for anti-malarial chemotherapy” (Malaria Journal, 2015)
Read-outs that look alike come from different tables or passages of the source.

Assays:
[1] = system: asexual NF54 strain P. falciparum; assay: Plasmodium falciparum asexual blood stages proliferation assay with SYBR Green read-out; format: cell-based; conditions: for IC50 / anti-malarial activity (in words): compound alone, 10% human serum; for IC50: NF54 asexual blood stages, 72 hours, relative to DHA control, read-out: Anti-malarial activity IC50; for anti-malarial activity (in words): highest concentration tested 100 μM; for change of anti-malarial potency upon vanin inhibition: combined with 5 μM of vanin inhibitor CXP14.1-060
Protocol: The asexual stages of the NF54 strain P. falciparum were cultured as previously described, utilizing a shaker system with automated media change twice a day, parasites were kept in continuous culture within adapted Erlenmeyer flasks. Erythrocytes were refreshed every two or three days to adjust haematocrit to 5% and parasitaemia to 0.5%. Human erythrocytes (blood type A) were obtained from healthy blood donors, with no history of malaria. Culture media consisted of RPMI 1640 with HEPES [5.94 g/l, hypoxanthine [0.05 g/l], 10% (v/v) pooled human serum (blood type A) obtained similarly to erythrocytes, and 0,2% (w/v) sodium bicarbonate. Temperature was set to 37°C and a low oxygen gas mixture was constantly flushed over the culture maintaining a stable atmosphere of 3% O2, 4% CO2, and 93% N2.
A non-synchronous asexual NF54 strain P. falciparum culture was adjusted to a parasitaemia of 0.5-1% and a haematocrit of 1-5%. The compound dilution curves were prepared in dimethylsulphoxide (DMSO) from 100 mM to 10 μM at half/log step dilutions. The established anti-malarial dihydroartemisinin (DHA) was used as a positive control and diluted in DMSO from 1 mM to 100 nM at half/log step dilutions. The DMSO dilutions were 500-fold diluted in growth medium to yield a final DMSO concentration of 0.2% (v/v), and final compound concentrations from 200 μM to 20 nM (2 μM to 200 pM for DHA). Higher concentrations for the experimental compounds would not have been possible to achieve due to limitations in final DMSO concentration (0.1% v/v). Fifty μl of each compound dilution was combined with 50 μl of parasite culture in a black, clear-bottomed or entirely black 96-well plate. The outermost wells were filled with sterile water to prevent evaporation. DHA at a concentration of 1 μM and 0.1% DMSO (negative control) were used to determine the assay window. The 96-well plates were incubated for 72 hours in a candle jar at 37°C. Read-out was done using the DNA-marker SYBR Green as described previously. All assays were conducted at least in triplicate.
When combining two compounds in the same well the conditions were otherwise similar to the single compound assays, however the final DMSO concentration was 0.2%, which was also adjusted for the positive and negative controls and was not found to cause differences in results obtained with single compounds in assay containing 0.1% DMSO. The pantothenamide phenethyl-Pan was combined with a 10^−7 to 10^−5 M concentration curve of CXP14.1-060; the other pantothenamides were combined only with a 5 μM concentration of the same vanin inhibitor. The pantothenone vanin inhibitor RR8 was additionally combined with 20 μM, 6.3 μM, 2.0 μM, and 0.6 μM of pantothenate to explore potential competition for the same molecular target in P. falciparum. All assays were conducted at least in triplicate.
Statistical analyses were performed using GraphPad Prism 5. This includes producing inhibition curves, normalizing them to percentage of inhibition, calculation of IC50 values, correlation coefficients (Spearman non-parametric correlation), and Schild analyses. The IC50 is the concentration of the compound in question at which the compound reaches 50% inhibition relative to the DHA control curve, and is calculated using the interpolate function in GraphPad Prism 5.

[2] = target: T1, vanin enzymatic activity in human serum (Homo sapiens, UniProt O95497); assay: Vanin/pantetheinase activity assay with AMC substrate and fluorescence readout; format: biochemical
T1 sequence (O95497 22-491): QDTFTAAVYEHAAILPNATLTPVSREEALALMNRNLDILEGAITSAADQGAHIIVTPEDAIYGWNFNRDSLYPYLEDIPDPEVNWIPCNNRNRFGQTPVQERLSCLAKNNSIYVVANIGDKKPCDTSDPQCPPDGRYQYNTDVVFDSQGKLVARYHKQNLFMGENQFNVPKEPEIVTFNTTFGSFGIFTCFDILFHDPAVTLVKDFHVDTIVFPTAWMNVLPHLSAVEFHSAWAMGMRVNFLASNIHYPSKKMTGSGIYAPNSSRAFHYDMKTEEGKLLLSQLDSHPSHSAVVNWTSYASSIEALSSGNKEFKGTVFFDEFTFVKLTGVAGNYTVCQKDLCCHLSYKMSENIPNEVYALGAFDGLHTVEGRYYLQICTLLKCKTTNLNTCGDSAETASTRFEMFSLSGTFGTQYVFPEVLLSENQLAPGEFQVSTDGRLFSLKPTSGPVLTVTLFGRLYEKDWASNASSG

P. falciparum = system: P. falciparum; design: method as in PMID 23405100; conditions: 'aged' medium; cited from earlier work
[3] = Plasmodium falciparum, NF54, 72 h

| SMILES | IC50 [1, 3] [µM] | anti-malarial activity (in words) [1] | also measured |
| --- | --- | --- | --- |
| CC(C)(CO)[C@@H](O)C(=O)N/C=C/C(=O)O [CJ-15,801] | > 100 | poor inhibitor of P. falciparum growth |  |
| CC(C)(CO)[C@@H](O)C(=O)NCCC(O)Cc1ccccc1 (stereo partly shown) [CXP14.1-034] | 24.1 |  |  |
| CC(C)(C)c1ccc(CC(=O)CCNC(=O)[C@H](O)C(C)(C)CO)cc1 [CXP14.1-060] | > 100 | no anti-malarial activity | potency against human vanins (in words) [2]: nanomolar potency |
| C[C@H]1[C@@H](O)O[C@@H]2O[C@@]3(C)CC[C@H]4[C@H](C)CC[C@@H]1[C@@]24OO3 [DHA, dihydroartemisinin] |  |  | change of anti-malarial potency upon vanin inhibition [1]: did not change; Anti-malarial IC50 (in words) ([1]; reference compound): low nanomolar range |
| CCCCCNC(=O)CCNC(=O)[C@H](O)C(C)(C)CO [N5-Pan] | ≥ 50 |  | change of anti-malarial potency upon vanin inhibition [1]: increased; IC50 [1]: 45.1 µM |
| CCCCCCCNC(=O)CCNC(=O)[C@H](O)C(C)(C)CO [N7-Pan] | ≥ 50 |  | change of anti-malarial potency upon vanin inhibition [1]: increased; IC50 [1]: 79 µM |
| CCCCCCCCCNC(=O)CCNC(=O)[C@H](O)C(C)(C)CO [N9-Pan] | ~15 |  | change of anti-malarial potency upon vanin inhibition [1]: not increased; IC50 [1]: 14.6 µM |
| CC(C)(CO)[C@@H](O)C(=O)NCCCO [Pantothenol] | > 100 | no anti-malarial activity |  |
| CC(C)(CO)[C@@H](O)C(=O)NCCC(=O)NCCc1ccccc1 [Phenethyl-Pan] | ≥ 50 |  | IC50 [1]: 98.2 µM; efficacy of parasite growth inhibition ([1]; in the presence of 10 μM of vanin inhibitor CXP14.1-060, comparable to DHA): full inhibition of parasite growth; IC50 (P. falciparum): 0.02 µM |
| C=CCCC(=O)CCNC(=O)[C@H](O)C(C)(C)CO [RR2] | 2.6 |  |  |
| CC(C)(CO)[C@@H](O)C(=O)NCCC(=O)CCc1ccccc1 [RR7] | 7.7 |  |  |
| CC(C)(CO)[C@@H](O)C(=O)NCCC(=O)CCCc1ccccc1 [RR8] | 2.2 |  | slope of the line in the Schild Plot ([1]; RR8 dilution curve combined with 20 μM, 6.3 μM, 2.0 μM and 0.6 μM of pantothenate): 1.087 ± 0.089; shift of IC50 on addition of pantothenate ([1]; addition of increasing concentrations of pantothenate): increase in the IC50 |
| CC(C)(CO)[C@@H](O)C(=O)NCCC(=O)c1ccccc1 [SN 12,601] | 6.1 | moderate activity |  |
| CC(C)(CO)[C@@H](O)C(=O)NCCS(=O)(=O)Nc1ccccc1 [SN 14,621] | 33.6 | moderate activity |  |
| CC(C)(CO)[C@@H](O)C(=O)NCCS(=O)(=O)Nc1ccc(Cl)cc1 [SN 14,622] | 7.4 | moderate activity |  |
